In PMC9782245, “Synthesis and Structural Optimization of 2,7,9-Trisubstituted purin-8-ones as FLT3-ITD Inhibitors” (International Journal of Molecular Sciences, 2022):
Values joined by “and” are separate entries in the source; they are usually repeats but may differ in a detail not shown here. Equal values may be shown once. Read-outs that look alike come from different tables or passages of the source.

Columns and labels:
MV4-11 cells = test: Resazurin-based viability assay, MV4-11; assay type: cell-based, Human; details: for GI50: Homo sapiens, MV4-11, 72 h, resazurin, at least duplicate experiments
From the text: (§1) In parallel to kinase assays, we measured the effect of compounds on the viability of cancer cell lines MV4-11 and K562 using a resazurin-based assay. MV4-11 is an AML cell line dependent on a constitutively activated FLT3-ITD kinase with high sensitivity to FLT3 inhibition, K562 cells (chronic myelogenous leukemia) are independent on FLT3.
(§2) Human cell lines were obtained from the European Collection of Authenticated Cell Cultures (K562) and Cell lines service (MV4-11) and were cultivated according to the provider’s instructions. Briefly, cells were maintained in RPMI-1640 (MV4-11) or DMEM (K562) supplemented with 10% fetal bovine serum, penicillin (100 U/mL), and streptomycin (0.1 mg/mL) at 37 °C in 5% CO2. For the viability assays, cells were treated in triplicate with six different doses of each compound for 72 h. After treatments, the resazurin (Sigma Aldrich, St. Louis, MO, USA) solution was added for 4 h, and the fluorescence of resorufin corresponding to live cells was measured at 544/590 nm (excitation/emission) using a Fluoroskan Ascent microplate reader (Labsystems). The GI50 value, the drug concentration lethal to 50% of the cells, was calculated from the dose-response curves that resulted from the assays.

CDK4/D1 = CDK4/D1 (Homo sapiens, UniProt P11802); test: Kinase inhibition assay CDK4/D1; assay type: biochemical
Protocol: (§3) Newly prepared compounds 12–15 were assayed for inhibition of FLT3-ITD kinase as well as CDK4 and CDK2, known off-targets of structurally related compounds. We observed that CDK4 was sensitive to nearly all compounds with IC50 values in mid-nanomolar values.
(§4) CDK/cyclin complexes and FLT3 kinases were assayed as previously described. Protein kinase selectivity was evaluated at a single concentration (1 µM) by screening against 30 enzymes at Eurofins Discovery (France).

CDK2/E = CDK2/E (Homo sapiens, UniProt P24941); test: Kinase inhibition assay CDK2/E; assay type: biochemical
Protocol: as §3, §4

K562 cells = test: Resazurin-based viability assay, K562; assay type: cell-based; details: Homo sapiens, 72 h, at least duplicate experiments
From the text: as §1, §2

FLT3-ITD = target: T1, FLT3-ITD (Homo sapiens, UniProt P36888, ITD); test: Kinase inhibition assay FLT3-ITD; assay type: biochemical
T1 sequence (P36888 27-993): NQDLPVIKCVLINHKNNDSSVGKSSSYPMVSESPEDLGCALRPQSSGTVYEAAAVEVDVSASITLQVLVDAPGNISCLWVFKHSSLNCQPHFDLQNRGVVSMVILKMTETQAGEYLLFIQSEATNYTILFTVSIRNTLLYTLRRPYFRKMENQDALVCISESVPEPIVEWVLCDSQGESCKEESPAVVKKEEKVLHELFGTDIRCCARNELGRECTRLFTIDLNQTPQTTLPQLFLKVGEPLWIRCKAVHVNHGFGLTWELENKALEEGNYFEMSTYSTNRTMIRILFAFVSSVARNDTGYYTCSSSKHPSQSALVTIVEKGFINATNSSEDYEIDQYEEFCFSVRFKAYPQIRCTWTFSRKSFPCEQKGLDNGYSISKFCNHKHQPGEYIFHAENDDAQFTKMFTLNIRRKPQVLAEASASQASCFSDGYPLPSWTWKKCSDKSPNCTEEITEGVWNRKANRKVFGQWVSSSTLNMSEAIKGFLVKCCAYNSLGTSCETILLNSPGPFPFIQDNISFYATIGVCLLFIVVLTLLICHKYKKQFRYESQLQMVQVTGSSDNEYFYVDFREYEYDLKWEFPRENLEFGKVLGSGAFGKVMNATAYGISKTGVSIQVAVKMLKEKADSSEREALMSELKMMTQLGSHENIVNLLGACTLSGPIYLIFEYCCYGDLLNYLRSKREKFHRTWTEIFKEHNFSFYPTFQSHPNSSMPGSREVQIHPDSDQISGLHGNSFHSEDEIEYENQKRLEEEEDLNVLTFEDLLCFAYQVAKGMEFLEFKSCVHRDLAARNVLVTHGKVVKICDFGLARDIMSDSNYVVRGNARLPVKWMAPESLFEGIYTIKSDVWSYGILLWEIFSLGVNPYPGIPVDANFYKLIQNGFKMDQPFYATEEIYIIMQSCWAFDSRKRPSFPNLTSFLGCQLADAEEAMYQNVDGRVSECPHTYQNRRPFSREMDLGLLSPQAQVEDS
Protocol: as §3, §4

[1] = at least duplicate experiments, read-out: IC50 CDK4/D1
[2] = at least duplicate experiments, read-out: IC50 CDK2/E
[3] = at least duplicate experiments, read-out: IC50 FLT3-ITD

Chain of CDK4/D1 (P11802 whole entry): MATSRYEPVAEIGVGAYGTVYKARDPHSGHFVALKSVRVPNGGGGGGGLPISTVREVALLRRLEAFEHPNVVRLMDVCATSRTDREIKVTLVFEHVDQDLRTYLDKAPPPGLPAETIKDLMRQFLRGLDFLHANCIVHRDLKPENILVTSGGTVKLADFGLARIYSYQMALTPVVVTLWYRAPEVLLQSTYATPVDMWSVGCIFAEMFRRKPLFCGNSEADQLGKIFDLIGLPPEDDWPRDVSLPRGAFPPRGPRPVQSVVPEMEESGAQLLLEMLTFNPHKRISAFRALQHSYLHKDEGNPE
Chain of CDK4/D1 (P24385 whole entry partner): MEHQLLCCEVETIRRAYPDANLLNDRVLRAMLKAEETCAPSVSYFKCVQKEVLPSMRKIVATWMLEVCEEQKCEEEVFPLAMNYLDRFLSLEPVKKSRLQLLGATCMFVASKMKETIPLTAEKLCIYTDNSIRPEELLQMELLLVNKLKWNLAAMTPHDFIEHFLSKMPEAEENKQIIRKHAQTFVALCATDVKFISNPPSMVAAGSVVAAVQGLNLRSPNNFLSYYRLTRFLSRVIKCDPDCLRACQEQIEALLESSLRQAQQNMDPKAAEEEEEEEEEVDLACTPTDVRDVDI

SMILES | GI50 (MV4-11 cells) [nM] | IC50 (CDK4/D1; [1]) | IC50 (CDK4/D1; read-out: IC50 CDK4) [nM] | melting point [°C] | IC50 (CDK2/E; [2]) | GI50 (K562 cells) [nM] | IC50 (FLT3-ITD; [3]) [nM] | IC50 (FLT3-ITD; read-out: IC50 FLT3) [nM] | IC50 (CDK2/E; read-out: IC50 CDK2) [nM] | selectivity index (ratio for GI50's of K562 and MV4-11 cells) (MV4-11 cells; K562 / MV4-11)
Cn1c(=O)n(-c2ccccc2)c2nc(Nc3ccc(N4CCNCC4)cc3)ncc21 [14m] | 340 | 400 nM | 400 to 520 | 120 to 122 | 3740 nM | 3030 | 54 | 50 to 60 | – | –
COc1ccc(-n2c(=O)n(C)c3cnc(Nc4ccc(N5CCNCC5)cc4)nc32)cc1 [14q] | 400 | 488 nM | – | 270 to 272 | > 1000 nM and 6180 nM | 1970 | 262 | – | – | –
CC1CCC(n2c(=O)[nH]c3cnc(Nc4ccc(N5CCNCC5)cc4)nc32)CC1 (stereo not shown) [13c] | 700 | 451 nM | – | – | 2560 nM | 1900 | 1050 | – | – | –
O=c1[nH]c2cnc(Nc3ccc(N4CCNCC4)cc3)nc2n1C1CCCCC1 [13b] | 690 | 782 nM | – | – | 3360 nM | 1780 | 1590 | – | – | –
Cn1c(=O)n(-c2cccc3ccccc23)c2nc(Nc3ccc(N4CCNCC4)cc3)ncc21 [14s] | 330 | > 1000 nM and 6900 nM | – | – | > 1000 nM and 9530 nM | 2530 | 850 | – | – | –
O=c1[nH]c2cnc(Nc3ccc(N4CCNCC4)cc3)nc2n1C1CCCC1 [13a] | 680 | 2880 nM | – | 200 to 202 | 24500 nM | 1630 | 2370 | – | – | –
Cn1c(=O)n(C=Cc2ccc(F)cc2)c2nc(Nc3ccc(N4CCNCC4)cc3)ncc21 [14t] | 520 | 216 nM | – | 248 to 250 | > 1000 nM and 7700 nM | 2290 | 345 | – | – | –
Cn1c(=O)n(C2CC2)c2nc(Nc3ccc(N4CCNCC4)cc3)ncc21 [14b] | 710 | > 1000 nM and 8020 nM | – | 156 to 158 | > 20000 nM | 45300 | 642 | – | – | –
Cn1c(=O)n(C2CCOCC2)c2nc(Nc3ccc(N4CCNCC4)cc3)ncc21 [14k] | 590 | > 1000 nM and 2530 nM | – | 124 to 126 | > 1000 nM and 9250 nM | 18200 | 450 | – | – | –
Cc1ccc(-n2c(=O)n(C)c3cnc(Nc4ccc(N5CCNCC5)cc4)nc32)cc1 [14o] | 460 | 169 nM | – | 126 to 128 | > 1000 nM and 2400 nM | 7620 | 160 | – | – | –
Cn1c(=O)n([C@H]2CC[C@H](O)CC2)c2nc(Nc3ccc(N4CCNCC4)cc3)ncc21 [14f] | 510 | 250 nM | – | 272 to 274 | > 1000 nM and 2870 nM | 9370 | 132 | – | – | –
COc1ccc(Cn2c(=O)n(C)c3cnc(Nc4ccc(N5CCNCC5)cc4)nc32)c(OC)c1 [14r] | 900 | > 20000 nM | – | 102 to 104 | > 1000 nM and 20000 nM | 11900 | 456 | – | – | –
O=c1[nH]c2cnc(Nc3ccc(N4CCNCC4)cc3)nc2n1C1CCCCCC1 [13d] | 560 | 479 nM | – | – | 1000 nM | 1580 | 425 | – | – | –

The next molecules have a lower GI50 (MV4-11 cells) than those just listed; values first:

GI50 (MV4-11 cells) [nM] | IC50 (CDK4/D1; [1]) | IC50 (CDK4/D1; read-out: IC50 CDK4) [nM] | melting point [°C] | IC50 (CDK2/E; [2]) | GI50 (K562 cells) [nM] | IC50 (FLT3-ITD; [3]) [nM] | IC50 (FLT3-ITD; read-out: IC50 FLT3) [nM] | IC50 (CDK2/E; read-out: IC50 CDK2) [nM] | SMILES | selectivity index (ratio for GI50's of K562 and MV4-11 cells) (MV4-11 cells; K562 / MV4-11)
110 | 27 nM | ≤ 300 | 114 to 116 | 180 nM | 1260 | 68 | ≤ 300 | ≤ 300 | Cn1c(=O)n([C@H]2CC[C@H](C)CC2)c2nc(Nc3ccc(N4CCNCC4)cc3)ncc21 [14g] | –
110 | 16 nM | – | 218 to 220 | 230 nM | 1170 | 60 | – | – | FC(F)(F)c1nc2cnc(Nc3ccc(N4CCNCC4)cc3)nc2n1C1CCCCC1 [12b] | –
110 | 524 nM | 400 to 520 | – | 3900 nM | 1040 | 56 | 50 to 60 | – | Cn1c(=O)n(C2CCC2)c2nc(Nc3ccc(N4CCNCC4)cc3)ncc21 [14c] | –
100 | 22 nM | ≤ 300 | 256 to 258 | 60 nM | 1480 | 34 | ≤ 300 | ≤ 300 | Cn1c(=O)n(C2CCCCCC2)c2nc(Nc3ccc(N4CCNCC4)cc3)ncc21 [14h] | –
100 | 1100 nM | – | – | 2320 nM | 1180 | 27 | – | – | CC(C)n1c(=O)n(C2CCCCCC2)c2nc(Nc3ccc(N4CCNCC4)cc3)ncc21 [15d] | –
310 | 2720 nM | – | 185 to 187 | 1590 nM | 370 | 306 | – | – | COc1ccccc1-n1c(=O)n(C)c2cnc(Nc3ccc(N4CCNCC4)cc3)nc21 [14p] | –
90 | 25 nM | ≤ 300 | – | 90 nM | 2460 | 12 | ≤ 300 | ≤ 300 | Cn1c(=O)n(C2CCCCCCC2)c2nc(Nc3ccc(N4CCNCC4)cc3)ncc21 [14i] | > 20
130 | 1100 nM | – | 264 to 266 | 4140 nM | 1450 | 40 | – | – | CC1CCC(n2c(=O)n(C(C)C)c3cnc(Nc4ccc(N5CCNCC5)cc4)nc32)CC1 (stereo not shown) [15c] | –
220 | 51 nM | – | 232 to 234 | 1630 nM | 1110 | 224 | – | – | FC(F)(F)c1nc2cnc(Nc3ccc(N4CCNCC4)cc3)nc2n1C1CCCC1 [12a] | –
130 | 2120 nM | – | 132 to 134 | 10300 nM | 1510 | 68 | – | – | CC(C)n1c(=O)n(C2CCCCC2)c2nc(Nc3ccc(N4CCNCC4)cc3)ncc21 [15b] | –
250 | 22 nM | – | 216 to 218 | 150 nM | 2450 | 88 | – | – | FC(F)(F)c1nc2cnc(Nc3ccc(N4CCNCC4)cc3)nc2n1C1CCCCCC1 [12d] | –
